Results from patent US8071568B2, “Nucleoside aryl phosphoramidates for the treatment of RNA-dependent RNA viral infection” (Merck Sharp & Dohme Corp., priority 2007, dated 2011).
Read-outs that look alike come from different tables or passages of the source.

Tested on: Hepatitis C Virus RNA in cultured hepatoma (HuH-7) cells containing a subgenomic HCV Replicon
Assay: Assay for inhibition of HCV RNA replication (replicon assay, in situ ribonuclease protection SPA)
Assay type: cell-based
[1] = Hepatitis C virus, Huh-7, read-out: Replicon Assay EC50
[2] = Hepatitis C virus, Huh-7, read-out: Replicon Assay EC50, first eluting diastereomer, HuH-7 subgenomic HCV replicon
[3] = Hepatitis C virus, Huh-7, read-out: Replicon Assay EC50, second eluting diastereomer, HuH-7 subgenomic HCV replicon
[4] = mixture of diastereomers tested, HuH-7 subgenomic HCV replicon, read-out: Replicon Assay EC50

Row | Compound | EC50 [1] [nM] | EC50 (read-out: Replicon Assay EC50) [nM] | EC50 [2] [nM] | EC50 [3] [nM] | other results
1 | CC(C)C(=O)OC[C@H](Cc1ccccc1)NP(=O)(OC[C@H]1O[C@@H](n2ccc(N)nc2=O)[C@](C)(O)[C@@H]1O)Oc1ccccc1 (single isomer, unassigned) [Example 11] | 500 | 900 |  |  | 
2 | CCCC(=O)OC[C@H](C)NP(=O)(OC[C@H]1O[C@@H](n2ccc(N)nc2=O)[C@](C)(O)[C@@H]1O)Oc1ccccc1 (mixture of isomers) [Example 2, 5′-O-[{[(±)-2-(Butyryloxy)-1-methylethyl]-amino}-(phenoxy)-phosphoryl]-2′-C-methylcytidine] | 2800 | 4000 |  |  | 
3 | C[C@@H](COC(=O)C(C)(C)C)NP(=O)(OC[C@H]1O[C@@H](n2ccc(N)nc2=O)[C@](C)(O)[C@@H]1O)Oc1ccccc1 (single isomer, unassigned) [Example 1] | 1600 | 900 |  |  | 
4 | C[C@@]1(O)[C@H](O)[C@@H](COP(=O)(NCCOC(=O)c2ccccc2)Oc2ccccc2)O[C@H]1n1ccc(N)nc1=O (single isomer, unassigned) [Example 16, cytidine, 5′-O-[[[2-(benzoyloxy)ethyl]amino]phenoxyphosphinyl]-2′-C-methyl-] |  |  | 2200 | 5000 | 
5 | CCCCC(COC(=O)C(C)(C)C)NP(=O)(OCC1OC(n2ccc(N)nc2=O)C2(C)OC(C)(C)OC12)Oc1ccccc1 [Example 15, cytidine, 5′-O-[[[(1S)-1-[(2,2-dimethyl-1-oxopropoxy)methyl]pentyl]amino]phenoxyphosphinyl]-2′-C-methyl-2′,3′-O-(1-methylethylidene)-] |  |  |  |  | EC50 [4]: > 10000 nM
6 | CC(C)C(=O)O[C@@H]1CCN(P(=O)(OC[C@H]2O[C@@H](n3ccc(N)nc3=O)[C@](C)(O)[C@@H]2O)Oc2ccccc2)C1 (single isomer, unassigned) [Example 22] |  |  | > 5000 | > 5000 | 
7 | C[C@@]1(O)[C@H](O)[C@@H](COP(=O)(NCCOC(=O)C2CCCCCC2)Oc2ccccc2)O[C@H]1n1ccc(N)nc1=O (single isomer, unassigned) [Example 21, 5′-O-[({2-[(cycloheptylcarbonyl)oxy]ethyl}amino)(phenoxy)phosphoryl]-2′-C-methylcytidine] |  |  | 700 | 1200 | 
8 | CC(C)(C)C(=O)OC[C@H](Cc1ccccc1)NP(=O)(OC[C@H]1O[C@@H](n2ccc(N)nc2=O)[C@](C)(O)[C@@H]1O)Oc1ccccc1 (stereo partly drawn) [Example 8, 5′-O-[[[(1S)-2-[(2,-dimethyl-1-oxopropoxy)-1-(phenylmethyl)]-ethyl]amino]-(phenoxy)-phosphinyl]-2′-C-methylcytidine] |  |  |  |  | EC50 [4]: 1000 nM
9 | CC[C@H](C)[C@@H](COC(=O)C(C)(C)C)NP(=O)(OC[C@H]1O[C@@H](n2ccc(N)nc2=O)[C@](C)(O)[C@@H]1O)Oc1ccccc1 (single isomer, unassigned) [Example 6] | 2000 | 1800 |  |  | 
10 | CC1(C)O[C@@H]2[C@@H](COP(=O)(N[C@H](COC(=O)C(C)(C)C)Cc3ccccc3)Oc3ccccc3)O[C@@H](n3ccc(N)nc3=O)[C@]2(C)O1 (stereo partly drawn) [Example 14, cytidine, 5′-O-[[[(1S)-2-(2,2-dimethyl-1-oxopropoxy)-1-(phenylmethyl)ethyl]amino]phenoxyphosphinyl]-2′-C-methyl-2′,3′-O-(1-methylethylidene)-] |  |  |  |  | EC50 (first eluting diastereomer, HuH-7 subgenomic HCV replicon, read-out: Replicon Assay EC50): > 5000 nM; EC50 (second eluting diastereomer, HuH-7 subgenomic HCV replicon, read-out: Replicon Assay EC50): > 5000 nM
11 | CC(C)C(=O)O[C@@H](C)CNP(=O)(OC[C@H]1O[C@@H](n2ccc(N)nc2=O)[C@](C)(O)[C@@H]1O)Oc1ccccc1 (single isomer, unassigned) [Example 12] | 2200 | 2400 |  |  | 
12 | CCC(CC)C(=O)OCCNP(=O)(OC[C@H]1O[C@@H](n2ccc(N)nc2=O)[C@](C)(O)[C@@H]1O)Oc1ccccc1 (single isomer, unassigned) [Example 20, 5′-O-[({2-[(2-ethylbutanoyl)oxy]ethyl}amino)(phenoxy)phosphoryl]-2′-C-methylcytidine] |  |  | 2800 | 600 | 
